Values of other authors in patent EP3338772A1, “[…] COMPOSITIONS STABILIZED BY HYDROXYCARBOXYLIC ACIDS , THE PRODUCTION THEREOF AND HIGHLY CONCENTRATED MAGNESIUM COMPOSITIONS” (Merz Pharma GmbH & Co. KGaA, priority 2016, dated 2018).
Like-named read-outs stand apart in the source and are kept apart here. Values belong to the substance of their own block, whether it stands above or below them.

Columns and labels:
[1] = water

Substance: Calcium-Magnesium-Lactat-Citrat-Komplex
Löslichkeit in Wasser, Calcium [1]: 900 mg/L | Löslichkeit in Wasser, Magnesium [1]: 300 mg/L

Löslichkeit (25 °C): 18,14 g(Mg^2+)kg^-1H2O
Substance: Trimagnesiumdicitrat*Nonahydrat (C12H10O14Mg3*9H2O)

Löslichkeit (22 °C): 19,40 g(Mg^2+)kg^-1H2O | maximale Magnesium-Konzentration (Raumtemperatur, without hydroxycarboxylic acid): 19,40 g(Mg^2+) kg^-1 (Wasser)
Substance: Trimagnesiumdicitrat*Tetradecanhydrat (C12H10O14Mg3*14H2O)
